From ChEMBL document CHEMBL5303573, “Mapping human microbiome drug metabolism by gut bacteria and their genes” (Nature, 2019)

Legend:
[1] = The drug is tested on Coprococcus comes strain: ATCC27758 for biotransformation. The drug concentrations were measured before and after a 12-h incubation by liquid-chromatography-coupled mass spectrometry (LC–MS); assay type: ADME; design: dose 2 uM, timepoint 0 vs 12 hours; conditions: 2 µM
[2] = bacteroides fragilis, 12 h, 2 µM
Description: The drug is tested on Bacteroides fragilis strain: 3397 (T10) for biotransformation. The drug concentrations were measured before and after a 12-h incubation by liquid-chromatography-coupled mass spectrometry (LC–MS)

[3] = The drug is tested on Bacteroides fragilis strain: HMW615 for biotransformation. The drug concentrations were measured before and after a 12-h incubation by liquid-chromatography-coupled mass spectrometry (LC–MS); conditions: 2 µM
[4] = anaerostipes sp., 12 h, 2 µM
Description: The drug is tested on Anaerostipes sp. strain: fecal isolate for biotransformation. The drug concentrations were measured before and after a 12-h incubation by liquid-chromatography-coupled mass spectrometry (LC–MS)

[5] = The drug is tested on Bacteroides caccae strain: ATCC43185 for biotransformation. The drug concentrations were measured before and after a 12-h incubation by liquid-chromatography-coupled mass spectrometry (LC–MS); conditions: 2 µM
[6] = bacteroides intestinalis, 12 h, 2 µM
Description: The drug is tested on Bacteroides intestinalis strain: DSM17393 for biotransformation. The drug concentrations were measured before and after a 12-h incubation by liquid-chromatography-coupled mass spectrometry (LC–MS)

[7] = The drug is tested on Bifidobacterium longum subsp. Infantis strain: CCUG52486 for biotransformation. The drug concentrations were measured before and after a 12-h incubation by liquid-chromatography-coupled mass spectrometry (LC–MS); conditions: 2 µM
[8] = The drug is tested on Ruminococcus lactaris strain: ATCC29176 for biotransformation. The drug concentrations were measured before and after a 12-h incubation by liquid-chromatography-coupled mass spectrometry (LC–MS); conditions: 2 µM
[9] = The drug is tested on Collinsella aerofaciens strain: ATCC25986 for biotransformation. The drug concentrations were measured before and after a 12-h incubation by liquid-chromatography-coupled mass spectrometry (LC–MS); conditions: 2 µM
[10] = parabacteroides distasonis, 12 h, 2 µM
Description: The drug is tested on Parabacteroides distasonis strain: ATCC8503 for biotransformation. The drug concentrations were measured before and after a 12-h incubation by liquid-chromatography-coupled mass spectrometry (LC–MS)

[11] = The drug is tested on Odoribacter splanchnicus strain: fecal isolate for biotransformation. The drug concentrations were measured before and after a 12-h incubation by liquid-chromatography-coupled mass spectrometry (LC–MS); conditions: 2 µM
[12] = The drug is tested on Enterobacter cancerogenus strain: ATCC35316 for biotransformation. The drug concentrations were measured before and after a 12-h incubation by liquid-chromatography-coupled mass spectrometry (LC–MS); conditions: 2 µM
[13] = The drug is tested on Clostridium scindens strain: ATCC35704 for biotransformation. The drug concentrations were measured before and after a 12-h incubation by liquid-chromatography-coupled mass spectrometry (LC–MS); conditions: 2 µM
[14] = The drug is tested on Bacteroides xylanisolvens strain: DSM18836 for biotransformation. The drug concentrations were measured before and after a 12-h incubation by liquid-chromatography-coupled mass spectrometry (LC–MS); conditions: 2 µM
[15] = The drug is tested on Bacteroides finegoldii strain: DSM17565 for biotransformation. The drug concentrations were measured before and after a 12-h incubation by liquid-chromatography-coupled mass spectrometry (LC–MS); conditions: 2 µM
[16] = The drug is tested on Eubacterium hallii strain: DSM3353 for biotransformation. The drug concentrations were measured before and after a 12-h incubation by liquid-chromatography-coupled mass spectrometry (LC–MS); conditions: anaerobutyricum hallii, 2 µM
[17] = The drug is tested on Clostridium sporogenes strain: ATCC15579 for biotransformation. The drug concentrations were measured before and after a 12-h incubation by liquid-chromatography-coupled mass spectrometry (LC–MS); conditions: 2 µM
[18] = The drug is tested on Providencia rettgeri strain: DSM1131 for biotransformation. The drug concentrations were measured before and after a 12-h incubation by liquid-chromatography-coupled mass spectrometry (LC–MS); assay type: ADME; design: dose 2 uM, timepoint 0 vs 12 hours; conditions: 2 µM
[19] = bacteroides thetaiotaomicron, 12 h, 2 µM
Description: The drug is tested on Bacteroides thetaiotaomicron strain: 3731 for biotransformation. The drug concentrations were measured before and after a 12-h incubation by liquid-chromatography-coupled mass spectrometry (LC–MS)

Row | SMILES | Bacterial Biotransformation [1] | Bacterial Biotransformation [2] | Bacterial Biotransformation [3] | Bacterial Biotransformation [4] | Bacterial Biotransformation [5] | Bacterial Biotransformation [6] | Bacterial Biotransformation [7] | Bacterial Biotransformation [8] | Bacterial Biotransformation [9] | Bacterial Biotransformation [10] | Bacterial Biotransformation [11] | Bacterial Biotransformation [12] | Bacterial Biotransformation [13] | Bacterial Biotransformation [14] | Bacterial Biotransformation [15] | Bacterial Biotransformation [16] | Bacterial Biotransformation [17] | Bacterial Biotransformation [18] | Bacterial Biotransformation [19]
1 | CN(C)CCC=C1c2ccccc2C=Cc2ccccc21 [CYCLOBENZAPRINE] | Compound NOT metabolized | Compound NOT metabolized | Compound NOT metabolized | Compound NOT metabolized | Compound NOT metabolized | Compound NOT metabolized | Compound NOT metabolized | Compound NOT metabolized | Compound NOT metabolized | Compound NOT metabolized | Compound NOT metabolized | Compound NOT metabolized | Compound NOT metabolized | Compound NOT metabolized | Compound NOT metabolized | Compound NOT metabolized |  |  | 
2 | CN1CCC(=C2c3ccccc3CCc3cccnc32)CC1.O=C(O)/C=C\C(=O)O.O=C(O)/C=C\C(=O)O [AZATADINE MALEATE] | Compound NOT metabolized | Compound NOT metabolized |  | Compound NOT metabolized | Compound NOT metabolized | Compound NOT metabolized | Compound NOT metabolized | Compound NOT metabolized | Compound NOT metabolized | Compound NOT metabolized |  | Compound NOT metabolized | Compound NOT metabolized |  | Compound NOT metabolized | Compound NOT metabolized | Compound NOT metabolized | Compound NOT metabolized | Compound NOT metabolized
3 | CN1C[C@H](C(=O)N[C@]2(C)O[C@@]3(O)[C@@H]4CCCN4C(=O)[C@H](Cc4ccccc4)N3C2=O)C=C2c3cccc4[nH]cc(c34)C[C@H]21.CN1C[C@H](C(=O)N[C@]2(C)O[C@@]3(O)[C@@H]4CCCN4C(=O)[C@H](Cc4ccccc4)N3C2=O)C=C2c3cccc4[nH]cc(c34)C[C@H]21.O=C(O)C(O)C(O)C(=O)O [ERGOTAMINE TARTRATE] |  | Compound metabolized |  | Compound metabolized | Compound metabolized | Compound metabolized | Compound metabolized | Compound metabolized | Compound metabolized | Compound metabolized | Compound metabolized | Compound metabolized | Compound metabolized | Compound metabolized | Compound metabolized | Compound metabolized | Compound metabolized | Compound metabolized | Compound metabolized
4 | NC12CC3CC(CC(C3)C1)C2 [AMANTADINE] | Compound NOT metabolized |  | Compound NOT metabolized | Compound NOT metabolized | Compound NOT metabolized |  | Compound NOT metabolized | Compound NOT metabolized | Compound NOT metabolized | Compound NOT metabolized | Compound NOT metabolized | Compound NOT metabolized | Compound NOT metabolized |  | Compound NOT metabolized | Compound NOT metabolized |  |  | Compound NOT metabolized
5 | CCCC(=O)Nc1ccc(OCC(O)CNC(C)C)c(C(C)=O)c1 (centres undefined) [ACEBUTOLOL] | Compound NOT metabolized | Compound NOT metabolized |  | Compound NOT metabolized | Compound NOT metabolized | Compound NOT metabolized | Compound NOT metabolized | Compound NOT metabolized | Compound NOT metabolized |  | Compound NOT metabolized | Compound NOT metabolized | Compound NOT metabolized | Compound NOT metabolized | Compound NOT metabolized | Compound NOT metabolized | Compound NOT metabolized | Compound NOT metabolized | Compound NOT metabolized
6 | CN(C)CCc1c[nH]c2ccc(CS(=O)(=O)N3CCCC3)cc12 [ALMOTRIPTAN] | Compound NOT metabolized | Compound NOT metabolized |  | Compound NOT metabolized | Compound NOT metabolized | Compound NOT metabolized | Compound NOT metabolized | Compound NOT metabolized | Compound NOT metabolized | Compound NOT metabolized | Compound NOT metabolized | Compound NOT metabolized | Compound NOT metabolized | Compound NOT metabolized | Compound NOT metabolized | Compound NOT metabolized | Compound NOT metabolized | Compound NOT metabolized | 
7 | CC(C)NCC(O)COc1ccc(CC(N)=O)cc1 (centres undefined) [ATENOLOL] | Compound NOT metabolized |  |  | Compound NOT metabolized |  | Compound NOT metabolized | Compound NOT metabolized |  | Compound NOT metabolized | Compound NOT metabolized |  | Compound NOT metabolized | Compound NOT metabolized | Compound NOT metabolized | Compound NOT metabolized | Compound NOT metabolized | Compound NOT metabolized |  | 
